What was measured:
3T3 fibroblasts = experiment: Cellular proliferation of 3T3 fibroblasts, neutral red colorimetry (1.1a); type: cell-based, Mice
Method: Experiments on 3T3 fibroblasts
Mice 3T3 fibroblasts cultures sown at a 40.000/ml concentration on plates having 6 wells in a DMEM culture medium enriched with 10% calf serum are used. After 24 hours culture, the 90 prepared wells are divided in order to allow the analyses of the compounds of the invention, every compound to be tested being used respectively at a concentration of 0.1, 1 and 10 μg/ml by subsequent evaluations after 48 and 72 hours of incubation.
Hexadecyltrimethylammoniun (ETA) traumatare: solubilized in water and brought to the desired final concentrations of 0.1. 1 and 10 μg/ml by progressive dilutions;
Ethanolamine traumatate: solubilized in water and brought to the final concentrations of 0.1, 1 and 10 μg/ml by progressive dilutions;
Traumatic acid: neutralized with sodium hydroxyde and solubilized in water, then brought to the final concentrations of 0.1, 1 and 10 μg/ml by progressive dilutions with the culture medium.
The compounds are added to the cells after 24 hours culture. The cells number is measured by colorimetry with the neutral red intravital stain after 24, 48, 72 hours of incubation.

Balb/C 3T3 fibroblasts = experiment: Cell growth of Balb/C 3T3 fibroblasts, crystal violet colorimetry (1.1b); type: cell-based, Mouse; details: for cell growth t2/t1: 48 h/24 h, control 76.776
Method: Mouse Balb/C 3T3 fibroblasts were grown in DMEM medium supplemented with penicillin (100 units/ml) and streptomycin (0.1 mg/ml). For experimental purposes, cells are routinely inoculated in […] diameter culture dishes (5000cells/dish) and cultured overnight.
The compounds to be tested are solubilized in DMEM+10%FCS and DMSO to obtain the final concentration of 10^-5 M, 10^-6 M e 10^-7 M in 0.05% DMSO.
The cells number is measured 4, 24 and 48 hours after seeding. The cell growth is evaluated as t2/t1 ratio (%).

herpetic keratitis = details: topic and systemic administration; cited from earlier work
man = details: burns therapy; cited from earlier work
[1] = test system: psoriatic patients or patients affected by acne, dermatitis seborrheic, neurodermatitis and itches; details: trachoma, herpetic keratitis, verruca; cited from earlier work
experimental animal = details: topical route; cited from earlier work

## O=C(O)/C=C/CCCCCCCCC(=O)O [traumatic acid, 10-dodecendioic]
3T3 fibroblasts; 0.1 μg/ml, in words
  effect on cells proliferation: able to affect cells proliferation according to a not statistically significant trend
3T3 fibroblasts; 1 μg/ml, in words, ETA salt > ethanolamine salt = traumatic acid
  effect on cellular proliferation: able to increase cellular proliferation
3T3 fibroblasts; 24 hours of incubation, 0.1 (head: μg/ml), control 0.579 ± 0.021
  cells numeration (colorimetric, neutral red): 0.486 ± 0.029
3T3 fibroblasts; 24 hours of incubation, 1.0 (head: μg/ml), control 0.579 ± 0.021
  cells numeration (colorimetric, neutral red): 0.510 ± 0.008
3T3 fibroblasts; 24 hours of incubation, 10.0 (head: μg/ml), control 0.579 ± 0.021
  cells numeration (colorimetric, neutral red): 0.543 ± 0.019
3T3 fibroblasts; 48 hours of incubation, 0.1 (head: μg/ml), control 1.334 ± 0.050
  cells numeration (colorimetric, neutral red): 1.497 ± 0.087
3T3 fibroblasts; 48 hours of incubation, 1.0 (head: μg/ml), control 1.334 ± 0.050
  cells numeration (colorimetric, neutral red): 1.431 ± 0.047
3T3 fibroblasts; 48 hours of incubation, 10.0 (head: μg/ml), control 1.334 ± 0.050, ** p < 0.01 significant reduction
  cells numeration (colorimetric, neutral red): 1.442 ± 0.060
3T3 fibroblasts; 72 hours of incubation, 0.1 (head: μg/ml), control 2.360 ± 0.125
  cells numeration (colorimetric, neutral red): 2.492 ± 0.070
3T3 fibroblasts; 72 hours of incubation, 1.0 (head: μg/ml), control 2.360 ± 0.125
  cells numeration (colorimetric, neutral red): 2.349 ± 0.125
3T3 fibroblasts; 72 hours of incubation, 10.0 (head: μg/ml), control 2.360 ± 0.125, ** p < 0.01 significant reduction
  cells numeration (colorimetric, neutral red): 2.446 ± 0.128
3T3 fibroblasts; side control experiment, ETA and ethanolamine salts > traumatic acid
  time necessary for the cells to reach the confluence: reduce the time normally necessary for the cells to reach the confluence
Balb/C 3T3 fibroblasts; 4 h (t0), 10^-5M, control 0.300
  Cell density: 0.478
Balb/C 3T3 fibroblasts; 4 h (t0), 10^-6M, control 0.300
  Cell density: 0.495
Balb/C 3T3 fibroblasts; 4 h (t0), 10^-7M, control 0.300
  Cell density: 0.459
Balb/C 3T3 fibroblasts; 24 h (t1), 10^-5M, control 0.481
  Cell density: 0.317
Balb/C 3T3 fibroblasts; 24 h (t1), 10^-6M, control 0.481
  Cell density: 0.320
Balb/C 3T3 fibroblasts; 24 h (t1), 10^-7M, control 0.481
  Cell density: 0.323
Balb/C 3T3 fibroblasts; 48 h (t2), 10^-5M, control 0.849
  Cell density: 0.657
Balb/C 3T3 fibroblasts; 48 h (t2), 10^-6M, control 0.849
  Cell density: 0.657
Balb/C 3T3 fibroblasts; 48 h (t2), 10^-7M, control 0.849
  Cell density: 0.740
Balb/C 3T3 fibroblasts; 10^-5M
  cell growth t2/t1: 112.273%
Balb/C 3T3 fibroblasts; 10^-6M
  cell growth t2/t1: 95.638%
Balb/C 3T3 fibroblasts; 10^-7M
  cell growth t2/t1: 135.554%
Herpetic keratitis
  effect on herpetic keratitis model: effectiveness on an in vivo herpetic keratitis model both after topic and systemic administration
man
  reepithelialization times: reduces the reepithelialization times
[1]
  clinical results: Positive clinical results
Experimental animal
  reepithelializing and antiirritant action: reepithelializing and antiirritant action
